The text below walks through data of US6858383B2, “Compositions and methods for the treatment and prevention of cardiovascular diseases and disorders, and for identifying agents therapeutic therefor” (Medlyte, Inc., priority 2000, dated 2005).

The test system of data set [1] is cultured cardiomyocytes. Briefly: S-1-P applied to cultured cardiomyocytes: apoptosis and calcium deregulation. Type of data set: cell-based, rat. Conditions: S-1-P treatment of cultured cardiomyocytes. The text has this: Exogenously applied […] is capable of activating blood platelets (Yatomi et al., J. Biol. Chem. 272:5291-5297, 1997; Yatomi et al., Blood 86:193-202, 1995). […] The first is to act on the platelets to promote the clotting response and further exacerbate the ischemia. Secondly, the platelet-derived […] acts in a paracrine fashion on neighboring endothelial and myocardial cells to promote calcium deregulation and apoptosis. On the cardiomyocytes, the consequence is to promote calcium overload. The endothelial cell response is to promote vasoconstriction and further limit the blood supply through the coronary vasculature. […] Extracellular […] is the ligand for a novel class of G protein-coupled receptors (GPCRs). Such receptors were first described as an orphan GPCRs cloned from human umbilical vein endothelial cells (Hla et al., J. Biol. Chem. 265:9308-9313, 1990; Lynch et al., Trends Pharmacol. Sci. 20:473-475, 1999). […] However, cardiac tissues are composed of diverse cell types, including endothelial cells, which have high levels of EDG-1 expression (Hla et al., J. Biol. Chem. 265:9308-9313, 1990). […] Recently a EDG-1 gene and its protein expression were determined in primary cultures of neonatal rat cardiomyocytes and in adult rat ventricular tissue (Nakajima et al., Biophysical J. 78:319 A, 2000). […]

In data set [2] the test system is cultured cardiomyocytes. Conditions: S-1-P applied to cultured cardiomyocytes; cited from earlier work.
Data set [3] can be described thus: Fate of 3H-SPH incubated in whole blood, TLC. Type of data set: in vitro ADME, human. As to the method:
Experiments were carried out to determine the fate of any SPH that might be released from cells or platelets into the extracellular compartment. Whole blood samples were incubated in vitro for up to 15 hours with ^3H-SPH, followed by thin layer chromatography (TLC) to examine which, if any, of the known metabolic products of the sphingomyelin pathway were radiolabeled as a result of metabolism of radiolabeled SPH.

A further data set relates to Adult rat cardiomyocytes. The data set can be described thus: Hypoxia-induced sphingosine (SPH) production/release in cultured cardiomyocytes, HPLC of extracted sphingolipids. The class given is cell-based. The protocol:
Adult rat cardiomyocytes were subjected to hypoxic conditions as described above and assayed for their ability to produce sphingolipid bases involved in the sphingomyelin signal transduction cascade.
Cardiomyocytes were cultured on plastic dishes that were placed in a humidified modular incubator chamber (ICN Biomedicals, Aurora, Ohio) pressurized to 0.04-0.05 psi by the particular gas mixture used in the treatment. Warm (37° C.) Tyrode's solution containing 0.2 mM BSA, ampicillin ([…]), kanamycin (100 mg/mL) and fungizone (20 μg/mL) was gassed in a 50 mL sterile conical for 15 minutes with 95%N2/5% CO2 prior to adding the solution to the cultured cells. The pO2 was monitored by a Micro pO2 System oxygen electrode (Lasar Research Labs, Los Angeles, Calif.) and found to be 4.0 PPM for the duration of the hypoxia condition. […] The pH of control and experimental cell cultures was monitored with a micro pH electrode (Beetrode pH Electrodes, Sarasota, Fla.) and remained constant at pH=7.26+/−0.02 for normoxic cells and 7.15+/−0.03 for hypoxic cells throughout the experiment. […]
The HPLC analysis was performed using a Beckman (Fullerton, Calif.) System Gold 118 Solvent Module and 507e Autosampler. A Jasco (Easton, Md.) FP-920 Intelligent Fluorescence Detector was used with an excitation wavelength of 330 nm and emission wavelength of 455 nm. […]

Data set [4] relates to isolated perfused rat heart. Briefly: Langendorff rat heart model of global ischemia and reperfusion. Conditions: 0.1 mM gentamicin recirculated 30 min; 40 min global ischemia; 45 min reperfusion. As to the method: A rat model of ischemia and reperfusion was used to evaluate the therapeutic potential of a gentamicin, an amino glycoside that inhibits sphingomyelinase.
Gentamicin vehicle solution was prepared as follows. A stock solution of 0.1 M Gentamicin was prepared by adding 70 mg of Gentamicin Sulfate (Sigma, G1264) to 1 ml of KH Buffer. KH buffer (150 ml) was combined with 150 μl)l of the stock solution to yield a 0.1 mM solution.
The protocol used was essentially that described by Sakai et al. (A device for recording left ventricular contraction and electrocardiogram in nonworking isolated perfused rat heart, Jpn J Pharmacol 28:223-9, 1978), and Zelinski et al., (Phosphatidylcholine biosynthesis in isolated hamster heart, J Biol Chem. 255:11423-8, 1980) with the exception, in the latter instance, that rat studies were used in the experiments described herein instead of hamster hearts.
In brief, rats were anesthetized and their hearts were excised. The isolated hearts were cannulated and attached to Langendorff perfusion apparatus, and perfused with KH buffer. The hearts were allowed to stabilize for 5-10 min. […]
A small hole was cut in the left atrium of each animal to expose the mitral valve. […] Left ventricular pressure was measured and recorded using the MacLab program. […]
After about 45 min., the perfusate was turned off and the ventricular pressure was no longer recorded. […]

The target of data set [5] is tumor necrosis factor alpha (TNFα) released by cultured rat cardiomyocytes (rat) (UniProt P16599). The data set can be described thus: cell-based or functional assay.
Chain of tumor necrosis factor alpha (TNFα) released by cultured rat cardiomyocytes (rat) (P16599 80-235 limits assumed): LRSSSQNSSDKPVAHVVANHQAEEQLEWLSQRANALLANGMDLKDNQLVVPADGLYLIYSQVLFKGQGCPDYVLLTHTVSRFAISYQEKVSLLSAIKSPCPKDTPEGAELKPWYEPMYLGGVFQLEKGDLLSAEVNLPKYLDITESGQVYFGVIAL

Consider `CCCCCCCCCCCCC/C=C/[C@@H](O)[C@@H](N)COP(=O)(O)O` [S-1-P, sphingosine-1-phosphate], for which the “average calcium level combining both diastolic and systolic responses” value in the data set on cultured cardiomyocytes [1] is recorded as “significantly increased”. In addition, the “apoptosis of cultured cardiomyocytes” value in the data set on cultured cardiomyocytes [2] is listed as “resulted in apoptosis”. In addition, the “stability in whole blood” value in data set [3] (15-hour time course) was “very stable”.
With `C[N+](C)(C)C[C@H](O)CC(=O)[O-]` [L-carnitine], the “hypoxia-induced production of sphingosine” value in the data set on Adult rat cardiomyocytes (cellular model) is reported as “blocks”. The “amount of total SPH” value in the data set on Adult rat cardiomyocytes (pretreated 30 min prior to hypoxia (5 hours), TNFRII:Fc 0.5 ng/mL, L-carnitine 20 ng/mL, adult cardiomyocytes) is on record as “significantly (p<0.01) reducing”.
Consider gentamicin, for which the “ischemia and reperfusion injury (left ventricular pressure)” value in data set [4] is “mitigated”.
Turning to `CCCCCCCCCCCCC/C=C/[C@@H](O)[C@@H](N)CO` [^3H-SPH, D(+)-erythro-2-amino-4-trans-octadecene-1,3-diol], in data set [3] (whole blood in vitro, up to 15 hours), the “conversion to ceramide or sphingomyelin” value was “not converted”. Further, in data set [3] (whole blood in vitro, within 20 minutes), the “conversion of 3H-SPH to 3H-S-1-P” value was 86%.
Regarding “TNFRII:Fc receptor fragment (from UniProt P20333 23-257) (Fc fusion)”, the SPH release from hypoxic cardiomyocytes after pretreatment with TNFRII:Fc in data set [5] was 3 fold.
